# Measurements published in ChEMBL document CHEMBL3832047, “DailyMed|setid=077bf6ff-afb8-4cb7-9faa-fbb6fd9f037f | YAZ - drospirenone and ethinyl estradiol|Physicians Total Care, Inc”.
# Tests used:
# Homo sapiens = assay: (§1) Evaluation pharmacokinetic parameters for Drosporine following multiple co-administration of Drosporine tablets and 0.02 mg ethinyl estradiol to 23 healthy females.; format: ADME, organism-based; parameters: dose 3 mg, route oral; conditions: in vivo, po, dosed compound id 30, dosed compound name DROSPIRENONE, gender female, regimen every 24h, study dosing duration 21 days, tissue Serum
# [1] = as §1; format: ADME, organism-based; parameters: dose 3 mg, route oral; conditions: human, in vivo, dosed compound id 30, dosed compound name DROSPIRENONE, gender female, regimen every 24h, study dosing duration 21 days, tissue Serum
smiles,measurement,setting,value
C[C@]12CCC(=O)C=C1[C@@H]1C[C@@H]1[C@H]1[C@@H]3[C@@H]4C[C@@H]4[C@@]4(CCC(=O)O4)[C@@]3(C)CC[C@@H]12 [DROSPIRENONE],AUC(0-24),Homo sapiens; sampling time1 1 day,0.268 µg·h/mL
same,AUC(0-24),Homo sapiens; sampling time1 21 day,0.763 µg·h/mL
same,Cmax,Homo sapiens; sampling time1 21 day,0.0703 µg/mL
same,Cmax,"[1]; po, sampling time1 1 day",0.0384 µg/mL
same,Tmax,"[1]; dose 3 mg, route oral, sampling time1 1 day",1 to 2 h
same,half-life,"[1]; dose 3 mg, route oral, sampling time1 21 day",30.8 h
